Data on seven molecules can be found in US20020177120A1, “ASSAYS FOR APOTOSIS MODULATORS” (priority 1999, published 2002).

Entries after “also recorded” stand apart in the source; their conditions may differ. *1 amine or outer side, *2 acyl side, *3 side chain or, on linkers, in order; H or OH if unused. Where a SMILES comes first, the peptide text is derived from it. Bridges are numbered along the chain shown (N, C = ends). Roman numbers before positions name the chains, in order. [ ]: non-standard residue; d: D form. Actinocin(9to1) = Cc1c2oc3c(C)ccc(C(=O)[*:1])c3nc-2c(C(=O)[*:2])c(N)c1=O; NMeV = CN[C@H](C(=O)O)C(C)C; Sar = CNCC(=O)O

The test system of assay [1] is IMR-32 cells. The assay can be described thus: Cell death / SYTO 13 cell survival in IMR-32 cells. The assay is classed as cell-based. Particulars: for programmed cell death as measured by Cell Death Detection: 4-8 hrs. treatment; for cells surviving (SYTO 13 assay): 50 μM etoposide. As for the experimental part: (§1) Three CNS derived cell lines, IMR-32, NB41A3 and Neuro2A, were initially evaluated for growth and transfection characteristics, inducibility of apoptosis in a large percentage of cells, and a inducible apoptosis protease activity. […] The SYTO 13 cell survival assay and Cell Death Detection ELISA^PLUS (Materials and Methods) were used to optimize conditions for induction of apoptosis. IMR-32 cells were treated with Actinomycin D (ActD), cycloheximide (CHX), etoposide or staurosporin for 4-8 hrs.
SYTO13 Cell Viability Assays: Cells were seeded into 96-well plates, incubated overnight to adhere cells to the plastic, and then treated in quadruplicate for various times with extrinsically applied apoptosis-inducing agents, i.e., staurosporin or etoposide. Cell viability was determined using 5 μM SYTO 13 (Molecular Probes) and/or 5 μg/ml propidium iodide (PI, Molecular Probes). As controls, four wells of untreated cells were stained with SYTO 13 and PI, i.e., to measure the maximum signal (max), and four wells of untreated cells were stained with only PI, i.e., to measure the minimum signal (min). After 30 minutes of incubation at 37° C., fluorescence was assayed in plates using the Cytofluor II plate reader (Perseptive Biosystems) (excitation 485/20 nm; emission 530/30 nm; gain 50). Data was collected as relative fluorescence units (rfu) and averaged for six readings per well. Percent cell survival was calculated as 100×(rfutreatment−rfumin)/(rfumax−rfumin).
(§2) Etoposide-Induced Cell Death and Apoptotic DNA Fragmentation in IMR-32 Cells: Confluent IMR-32 cells were treated with 50 μM etoposide phosphate for 2, 8, 17 or 24 hrs. To evaluate apoptosis cells were either: i) stained with SYTO 13 and assayed for fluorescence using a Cytofluor II plate reader (excitation 485/20 nm, emission 530/30 nm), or ii) nucleosome-associated DNA fragments were detected using the Cell Death Detection ELISA^PLUS (Boehringer Mannheim) according to the manufacturer's instructions.

The subject of assay [2] is caspase-3. The assay can be described thus: Caspase-3 assay in IMR-32 cells. The assay is classed as cell-based. The method, then: as §1
(§3) Caspase-3 Assay: Caspase-3 activity was assayed according to the following protocol. Cells plated and treated as above were washed in 1×PBS and lysed in 1×assay buffer (1 mM DTT, 1% Triton X-100, 0.5% Tween-20 in 1×PBS, pH 7.2). Lysates were combined with fluorogenic substrate, Ac-DEVD-AMC ([…]), ±inhibitor, Ac-DEVD-CHO (10 μM) (Bachem) in 1×assay buffer and incubated in the dark for 1 hr. at room temperature. Fluorescence readings were taken on the Cytofluor II plate reader (excitation 360 nm, emission 460 nm, 6 reads/well, gain 50).
Confluent IMR-32 cells were treated with 100 μM etoposide for 8 hrs. Cell lysates were collected and assayed for caspase-3 activity.

Another assay concerns F9-1-13 cells. The assay can be described thus: Cell-based FRET reporter assay in F9-1-13 (SgAT) cells. Also noted: species or system human. The source says: Transfection of pcDNA3VH-SgAT and pcDNA3VH-SnAT into U-138 cells (using methods described above) resulted initially in few colonies and FRET signal was lost in many clones during expansion, however, from among the various subclones the F9-1-13 (pcDNA3VH-SgAT transfected; ATCC No. PTA-84) and F10-24-2 (pcDNA3-SnAT transfected) subclones were eventually expanded and shown to express stable FRET signals. As desired, the FRET signal expressed in F9-1-13 decreased in response to both staurosporin and anti-Fas antibody treatment of cells, while the FRET signal expressed by the F10-24-2 control cells, (i.e., lacking a caspase substrate domain), was unaffected following staurosporin or anti-Fas antibody treatment. […] F9-1-13 therefore appeared suitable for microtiter assays, and perhaps use in HTS assays for screening to identify and select modulators of apoptosis.
Studies were initiated to adapt the experimental cell-based FRET assay of EXAMPLE 5 to a format suitable for use in high-throughput screening. First, the assay was scaled down from a 24-well to a 96-well plate format. Cells from three different F9 parental cultures were plated in a black-sided 96-well plates (Costar #3904) at a density of 32,000 cells/well (˜1×10^5 cells/cm^2); allowed to adhere overnight; and then the media was replaced with either 100 μl fresh media containing inducer (5 μM staurosporin in 0.25% DMSO vehicle) or 100 μl containing only vehicle (0.25% DMSO). After an overnight incubation, fluorescence measurements were made to evaluate FRET signal changes. […] The assay therefore appeared to be adaptable to a 96-well format but it was not initially clear how signal might be improved to increase the signal-to-background ratio.
A 96-well FRET assay was evaluated for inter-assay well variability and inter-plate variability. Possible signal drift during measurement of the FRET fluorescence signal was evaluated using one of two different robotics-compatible rapid fluorescence plate readers (SpeedReader or Cytofluor II). After plating at an initial density of about 60,000 cells/well, and overnight culture F9-1-13 cells were treated with 5 μM staurosporin, or vehicle. After an overnight incubation in staurosporin (i.e., 16-24 hrs.), the plates were either washed, or not washed, and then assayed repeatedly over the next 1.5 hours using either of the plate readers. […] However, using the same assay conditions but with anti-Fas antibody as an inducer, different results were recorded. […] The basis for the observed differences in measuring devices is not clear, but may relate to the design of the light source and/or the sensitivity of the detection circuitry in the two different respective fluorescence readers as well as possible different means for optically or digitally subtracting background incident radiation.
Assay Confirmation: The following experiment was performed to validate the ability of the 96-well FRET assay to detect inhibitors of apoptosis: namely, F9-1-13 cells (n=5 wells) were treated with 50-100 μM Z-VAD-fmk (a broad spectrum caspase inhibitor) or vehicle (n=55) in randomized wells of a 96-well plate. All of these wells, and six additional positive control wells (i.e., lacking the inhibitor), were treated with 5 μM staurosporine in 0.25% DMSO vehicle. Six negative control wells were treated with vehicle only (0.25% DMSO). After overnight incubation, FRET signal changes were evaluated as described above.
Three alternatives to staurosporine induction were evaluated: serum withdrawal; c2-ceramide treatment; and induction via engagement of the CD95/Fas receptor with anti-Fas antibody. […] To increase the proportion of adherent cells, poly-D-lysine and 0.1% gelatin were evaluated in anti-Fas antibody treated F9-1-13 cells. […] Anti-Fas antibody was therefore chosen as a preferred inducer of apoptosis for high-throughput screening. […]
In general terms: In a reporter assay the amount or activity of a reporter protein is the signal.

Assay [3] deals with caspase-3. The assay can be described thus: Caspase-3 activity in F9-1-13 cells. The assay is classed as cell-based, human. The conditions noted are these: 75 μM, 16-24 hours. The method, then: Three alternatives to staurosporine induction were evaluated: serum withdrawal; c2-ceramide treatment; and induction via engagement of the CD95/Fas receptor with anti-Fas antibody. […] To increase the proportion of adherent cells, poly-D-lysine and 0.1% gelatin were evaluated in anti-Fas antibody treated F9-1-13 cells. […] Anti-Fas antibody was therefore chosen as a preferred inducer of apoptosis for high-throughput screening.
as §3

In assay [4] the test system is caspase-3. The assay can be described thus: Caspase-3 assay in SAT-reporter-transformed HEK293 cells after apoptosis inducers. Particulars: 100-200 μM etoposide, 4, 5, 8 or 24 hrs. The assay is classed as cell-based, human.
Assay [5] has as its system IMR-32 cells. The assay is classed as cell-based. As for the experimental part: as §1
DNA Fragmentation ELISA: Apoptosis-induced inter-nucleosomal fragmentation of chromosomal DNA was quantified using the “Cell Death Detection ELISA^PLUS” (Boehringer Mannheim) according to the manufacturer's instructions. Briefly, ˜10^4 cells/well were plated on a poly-D-lysine-coated 96-well plate and treated for various periods of times with different apoptosis-inducing agents. The cells were lysed and the nuclei and membranes were pelleted. An aliquot of the cytoplasm-containing supernatant was then transferred to a streptavidin-coated microtiter plate and incubated with anti-histone-biotin and anti-DNA-peroxidase, resulting in the formation of “sandwich” antibody complexes, i.e., (anti-DNA-peroxidase)-(nucleosomal-DNA-containing-histone) -(anti-histone-biotin)-(streptavidin-microtiter plate). Unbound antibody was removed by washing. Peroxidase substrate (i.e., ABTS) was added and nucleosomal DNA complexes quantified by spectrophotometric analysis of the colored peroxidase reaction product.
as §2

Assay [6] has as its system IMR-32 cells. The assay can be described thus: Microscopic examination of SYTO 13 / propidium iodide stained IMR-32 cells. The assay is classed as cell-based. Particulars: etoposide. The source says:
Three CNS derived cell lines, IMR-32, NB41A3 and Neuro2A, were initially evaluated for growth and transfection characteristics, inducibility of apoptosis in a large percentage of cells, and a inducible apoptosis protease activity. […] The SYTO 13 cell survival assay and Cell Death Detection ELISA^PLUS (Materials and Methods) were used to optimize conditions for induction of apoptosis. […]
Morphologic Markers of Apoptosis: Microscopic markers of apoptosis include membrane blebbing, cell shrinkage (i.e., cytoplasmic condensation) and condensed (dense) chromosomal nuclear materials (i.e., pyknosis).

Another assay has as its system F1-1-42 cells. Nature of the assay: Staurosporin-induced apoptosis in F1-1-42 SAT FRET reporter cells (FRET signal, western blot, caspase-3, morphology). The assay is classed as cell-based, human. Particulars: 100 μM added 30 min prior to staurosporin. The method, then:
Detecting Intracellular Changes in a FRET Reporter in Cells Undergoing Apoptosis: Having established that SAT reporter protein synthesized in HEK293 cells could be cleaved ex vivo, i.e., in cell lysates by trypsin (above), an initial in vivo intracellular assay was conducted using the selected F1-1-42 clonal cell line and staurosporin to induce apoptosis. […] In these experiments the F1-1-42 cells were plated at a density of 4×10^5 cells/0.5 ml in each well of a 24-well microtiter plate. After overnight incubation, apoptosis was induced by adding staurosporin to a final concentration of 5 μM, and using vehicle (0.25% DMSO) as a negative control. Assays for caspase-3 were used to confirm that apoptosis was induced. […] Subsequent testing determined that significant changes in FRET signal were first detectable at about 8 hours after addition of staurosporin and were maximal by 24 hrs post-induction.
A general note: Immunoblotting shows a protein as a band on a membrane.

Where [7] appears, read: 50 μM etoposide phosphate, 2, 8, 17 or 24 hrs.

With `Cc1c2oc3c(C)ccc(C(=O)N[C@@H]4C(=O)N[C@H](C(C)C)C(=O)N5CCC[C@H]5C(=O)N(C)CC(=O)N(C)[C@@H](C(C)C)C(=O)O[C@@H]4C)c3nc-2c(C(=O)N[C@@H]2C(=O)N[C@H](C(C)C)C(=O)N3CCC[C@H]3C(=O)N(C)CC(=O)N(C)[C@@H](C(C)C)C(=O)O[C@@H]2C)c(N)c1=O` [ActD, Actinomycin D] (I: T[dV]P[Sar][NMeV] / II: T[dV]P[Sar][NMeV]; ester I:1-I:C, II:1-II:C; linker I:N-II:N via Actinocin(9to1)), the “programmed cell death as measured by Cell Death Detection” value in the assay on IMR-32 cells [1] is recorded as “about 30%”.
On the same count and under the same terms, for `C[C@@H]1C[C@@H]([C@H](O)CC2CC(=O)NC(=O)C2)C(=O)[C@@H](C)C1` [CHX, cycloheximide] the value was “about 50%”.
Turning to `COc1cccc2c1C(=O)c1c(O)c3c(c(O)c1C2=O)C[C@@](O)(C(=O)CO)C[C@@H]3O[C@H]1C[C@H](N)[C@H](O)[C@H](C)O1` [Doxorubicin], in the assay with caspase-3 [2] (5 μM), the “increase in caspase-3 activity” value is reported as “did not produce any increase in caspase-3 activity”.
Take `CCCCCCCCCCCCC/C=C/[C@@H](O)[C@H](CO)NC(C)=O` [c2-ceramide]: in the assay with F9-1-13 cells (75 μM, 16-24 hours), the FRET signal change entry was “Only a small reduction in the FRET signal”. In the assay on caspase-3 [3], the caspase-3 activity change result is “Only a small reduction in the FRET signal and increase in caspase-3 activity”.
Take `COc1cc([C@@H]2c3cc4c(cc3[C@@H](O[C@@H]3O[C@@H]5CO[C@@H](C)O[C@H]5[C@H](O)[C@H]3O)[C@H]3COC(=O)[C@H]23)OCO4)cc(OC)c1O` [etoposide]: in the assay with caspase-3 [4], the “change in caspase-3 activity” value is listed as “no change was observed; also recorded: showed no effect”. Also, the “cell survival by SYTO 13 staining in comparison with untreated controls” value in the assay on IMR-32 cells [1] (setting [7]) was “a decrease in cell survival over 24 hrs”. Further, the “cells surviving (SYTO 13 assay)” value in the assay on IMR-32 cells [1] (8 hr) is listed as 55%. Further, in the assay with IMR-32 cells [1] (24 hrs), the “cells surviving (SYTO 13 assay)” value was found to be 30%. For the same molecule, in the assay with IMR-32 cells [1], the “programmed cell death as measured by Cell Death Detection” value was “about 50%”. Further, the “time at which DNA fragmentation reached a maximal value” in the assay on IMR-32 cells [5] (50 μM etoposide) stood at 8 h. Also, the “measured apoptotic DNA fragmentation” value in the assay with IMR-32 cells [5] (setting [7]) is reported as “an increase in measured apoptotic DNA fragmentation”. Besides, the “DNA fragmentation as determined by ELISA, dose dependence” value in the assay on IMR-32 cells [5] (4-8 hrs. treatment) is “dose-dependent changes”. Further, in the assay with IMR-32 cells [6] (8 hrs.), the “attached cells obviously dead” value is given as “none were obviously dead”; the “attached cells with condensed nuclei and membrane blebbing” value is recorded as “about 50%”. Besides, in the assay with IMR-32 cells [6] (24 hrs.), the “attached cells clearly dead” value was “about 15%” and the “attached cells showing apoptotic morphology” value was “about 75%”. In addition, in the assay on caspase-3 [2] (confluent IMR-32, 100 μM etoposide, 8 hr.), the “increase in caspase-3 activity” value is on record as roughly 5 fold. Further, in the assay on caspase-3 [2] (etoposide 50-100 μM), the “induction of caspase-3-like activity” value was roughly 10 fold.
As to Z-DEVD-fmk, in the assay on F1-1-42 cells, the “effect on cleavage of SAT reporter in cell extracts (western blot)” value is “markedly less cleavage of SAT reporter”, the “effect on morphologic signs of apoptosis” value is “reduced morphologic signs of apoptosis” and the “effect on staurosporin-induced FRET signal change” value is recorded as “marked reduction in the FRET signal change”.
With Z-VAD-fmk, the “mean FRET signal greater than in the staurosporine treatment group” value in the assay on F9-1-13 cells (50-100 μM Z-VAD-fmk, 5 μM staurosporine, overnight, 96-well, P<0.001) is roughly 65%.
